Measurements reported in patent US20250282735A1, “BICYCLE COMPOUNDS AS TEAD INHIBITOR” (DONG-A ST CO., LTD., priority 2022, published 2025).

What follows are compounds tested on TEAD reporter-containing human breast cancer cell line MCF7 (assay: TEAD reporter (luciferase) assay). Conditions: TEAD reporter MCF7 cells, 24 hours treatment, 1% serum media.
Assay type: cell-based
Procedure: The TEAD reporter-containing human breast cancer cell line MCF7 (60618, BPS bioscience) was cultured according to the manufacturer's instructions. Cells were plated in 96-well white plates at a density of 30,000 per well and incubated overnight. The following day cells were treated with small molecules in 1% serum media (0.1% v/v DMSO). After 24 hours of the treatment, cell viability was evaluated by using CCK-8 reagent (CK04, Dojindo) and measuring absorbance at 450 nm. Then, the assay for luciferase activity was performed using Dual-Glo® Luciferase Assay System (Promega, E2940) following the manufacturer's instructions. Luminescence intensity was measured and the potency of the compounds was determined by IC50 value generated from non-linear regression analysis of the dose-response curves.
IC50 for luciferase activity are shown in the Table 1 below and designated within the following ranges. [+++: ≤0.1 μM, ++: >0.1 μM to ≤1 μM, +: >1 μM to ≤10 μM, −: >10 μM]

`C=CC(=O)Nc1cnc2c(c1)c(/C=C/c1ccc3c(c1)OCCO3)cn2C` [Example 61, (E)-N-(3-(2-(2,3-Dihydrobenzo[b][1,4]dioxin-6-yl)vinyl)-1-methyl-1H-pyrrolo[2,3-b]pyridin-5-yl)acrylamide] and `C=CC(=O)Nc1cnc2c(c1)c(/C=C/c1cccc(OC)c1)cn2C` [Compound 48, (E)-N-(3-(3-Methoxystyryl)-1-methyl-1H-pyrrolo[2,3-b]pyridin-5-yl)acrylamide] fall in the same range of IC50: 1000 to 10000 nM for the first, 1000 to 10000 nM for the second.

`C=CC(=O)Nc1ccc2c(c1)c(C1CCCCC1)cn2C` [Example 123, N-(3-Cyclohexyl-1-methyl-1H-indol-5-yl)acrylamide] and `C=CC(=O)Nc1cnc2c(c1)c(-c1ccc(C3CCCCC3)cc1)cn2C` [Example 108, N-(3-(4-Cyclohexylphenyl)-1-methyl-1H-pyrrolo[2,3-b]pyridin-5-yl)acrylamide] cannot be ordered by IC50: no more than 100 nM for the first, 100 to 1000 nM for the second.

First: Cn1cc(/C=C/c2ccc(Cl)cc2)c2cc(NC(=O)CC#N)cnc21 [Example 115, (E)-N-(3-(4-chlorostyryl)-1-methyl-1H-pyrrolo[2,3-b]pyridin-5-yl)-2-cyanoacetamide]
Second: Cn1cc(/C=C/c2ccc(Cl)cc2)c2cc(NS(C)(=O)=O)cnc21 [Example 117, (E)-N-(3-(4-Chlorostyryl)-1-methyl-1H-pyrrolo[2,3-b]pyridin-5-yl) methanesulfonamide]
The IC50 of the first is higher: greater than 10000 nM for the first, 100 to 1000 nM for the second.

First: C=CC(=O)Nc1cnc2c(c1)c(/C=C/C1CCOCC1)cn2C [Example 58, (E)-N-(1-Methyl-3-(2-(tetrahydro-2H-pyran-4-yl)vinyl)-1H-pyrrolo[2,3-b]pyridin-5-yl)acrylamide]
Second: C=CC(=O)Nc1cnc2c(c1)c(/C=C/C1CC1)cn2C [Example 60, (E)-N-(3-(2-Cyclopropylvinyl)-1-methyl-1H-pyrrolo[2,3-b]pyridin-5-yl)acrylamide]
The IC50 of the first is lower: 100 to 1000 nM for the first, 1000 to 10000 nM for the second. The first is the more potent here.

First: C=CC(=O)N(Cc1nn[nH]n1)c1cnc2c(c1)c(/C=C/c1ccc(Cl)cc1)cn2C [Example 69, (E)-N-((2H-Tetrazol-5-yl)methyl)-N-(3-(4-chlorostyryl)-1-methyl-1H-pyrrolo[2,3-b]pyridin-5-yl)acrylamide]
Second: C=CC(=O)N(CC(=O)O)c1cnc2c(c1)c(/C=C/c1ccc(Cl)cc1)cn2C [Example 65, (E)-N-Acryloyl-N-(3-(4-chlorostyryl)-1-methyl-1H-pyrrolo[2,3-b]pyridin-5-yl)glycine]
The IC50 of the first is lower: 1000 to 10000 nM for the first, greater than 10000 nM for the second.

First: C=CC(=O)Nc1cnc2c(c1)c(-c1cc(C)c(O)c(C)c1)cn2C [Example 113, N-(3-(4-Hydroxy-3,5-dimethylphenyl)-1-methyl-1H-pyrrolo[2,3-b]pyridin-5-yl)acrylamide]
Second: C=CC(=O)Nc1cnc2c(c1)c(-c1cccc(C#N)c1)cn2C [Compound 56, N-(3-(3-Cyanophenyl)-1-methyl-1H-pyrrolo[2,3-b]pyridin-5-yl)acrylamide]
The IC50 of the first is higher: greater than 10000 nM for the first, 1000 to 10000 nM for the second.

`C=CC(=O)Nc1ccc2c(c1)c(/C=C/c1ccc(Cl)cc1)cn2C1CCCC1` [Compound 11, (E)-N-(3-(4-Chlorostyryl)-1-cyclopentyl-1H-indol-5-yl)acrylamide] and `C=CC(=O)Nc1ccc2c(c1)c(/C=C/c1ccc(Cl)cc1)nn2C1CCCC1` [Compound 8, (E)-N-(3-(4-Chlorostyryl)-1-cyclopentyl-1H-indazol-5-yl)acrylamide] fall in the same range of IC50: 1000 to 10000 nM for the first, 1000 to 10000 nM for the second.

`C=CC(=O)Nc1ccc2c(c1)c(/C=C/c1ccc(Cl)cc1)nn2C(C)C` [Compound 6, (E)-N-(3-(4-Chlorostyryl)-1-isopropyl-1H-indazol-5-yl)acrylamide] and `C=CC(=O)Nc1ccc2c(c1)c(/C=C/c1ccc(Cl)cc1)cn2C(C)=O` [Example 75, (E)-N-(1-Acetyl-3-(4-chlorostyryl)-1H-indol-5-yl)acrylamide] cannot be ordered by IC50: greater than 10000 nM for the first, greater than 10000 nM for the second.

`C=CC(=O)Nc1ccc2c(c1)c(/C=C/c1ccc(F)cc1)cn2C(C)C` [Compound 29, (E)-N-(3-(4-Fluorostyryl)-1-isopropyl-1H-indol-5-yl)acrylamide] and `C=CC(=O)Nc1cc(F)c2c(c1)c(/C=C/c1ccc(Cl)cc1)cn2C(C)C` [Compound 39, (E)-N-(3-(4-Chlorostyryl)-7-fluoro-1-isopropyl-1H-indol-5-yl)acrylamide] cannot be ordered by IC50: greater than 10000 nM for the first, greater than 10000 nM for the second.

`C=CC(=O)Nc1cnc2ccn(Cc3ccc(F)cc3)c2c1` [Example 78, N-(1-(4-Fluorobenzyl)-1H-pyrrolo[3,2-b]pyridin-6-yl)acrylamide] and `C=CC(=O)Nc1cnc2ccn(Cc3ccc(C(F)(F)F)cc3)c2c1` [Example 76, N-(1-(4-(Trifluoromethyl)benzyl)-1H-pyrrolo[3,2-b]pyridin-6-yl)acrylamide] cannot be ordered by IC50: 100 to 1000 nM for the first, no more than 100 nM for the second.

`C=CC(=O)Nc1cnc2c(c1)c(-c1cccc(C(F)(F)F)c1)cn2C` [Compound 54, N-(1-Methyl-3-(3-(trifluoromethyl)phenyl)-1H-pyrrolo[2,3-b]pyridin-5-yl)acrylamide] and `C=CC(=O)Nc1cnc2c(c1)c(-c1cccc(C(F)(F)F)c1)cn2C(F)F` [Example 134, N-(1-(Difluoromethyl)-3-(3-(trifluoromethyl)phenyl)-1H-pyrrolo[2,3-b]pyridin-5-yl)acrylamide] cannot be ordered by IC50: no more than 100 nM for the first, 100 to 1000 nM for the second.

`C=CC(=O)Nc1ccc2c(c1)c(/C=C/C1CCC(F)(F)CC1)nn2C1CCCC1` [Compound 7, (E)-N-(1-Cyclopentyl-3-(2-(4,4-difluorocyclohexyl)vinyl)-1H-indazol-5-yl)acrylamide] and `C=CC(=O)Nc1cnc2c(c1)c(/C=C/C1CCC(F)(F)CC1)cn2C1CCCC1` [Compound 9, (E)-N-(1-Cyclopentyl-3-(2-(4,4-difluorocyclohexyl)vinyl)-1H-pyrrolo[2,3-b]pyridin-5-yl)acrylamide] cannot be ordered by IC50: 100 to 1000 nM for the first, no more than 100 nM for the second.

`C=CC(=O)Nc1cnc2c(c1)c(-c1ccc(C(C)(C)C)cc1)cn2C` [Example 109, N-(3-(4-(tert-Butyl)phenyl)-1-methyl-1H-pyrrolo[2,3-b]pyridin-5-yl)acrylamide] and `C=CC(=O)Nc1cnc2c(c1)c(-c1ccc(OC)cc1)cn2C` [Example 90, N-(3-(4-Methoxyphenyl)-1-methyl-1H-pyrrolo[2,3-b]pyridin-5-yl)acrylamide] fall in the same range of IC50: 1000 to 10000 nM for the first, 1000 to 10000 nM for the second.

First: C=CC(=O)Nc1cnc2c(c1)c(Cc1cccc(Cl)c1)cn2C [Example 136, N-(3-(3-Chlorobenzyl)-1-methyl-1H-pyrrolo[2,3-b]pyridin-5-yl)acrylamide]
Second: C=CC(=O)Nc1cnc2c(c1)c(-c1ccc(C#N)cc1)cn2C [Example 57, N-(3-(4-Cyanophenyl)-1-methyl-1H-pyrrolo[2,3-b]pyridin-5-yl)acrylamide]
The IC50 of the first is lower: no more than 100 nM for the first, 1000 to 10000 nM for the second.

`C=CC(=O)Nc1cnc2c(c1)c(/C=C/c1ccsc1)cn2C` [Example 59, (E)-N-(1-Methyl-3-(2-(thiophen-3-yl)vinyl)-1H-pyrrolo[2,3-b]pyridin-5-yl)acrylamide] and `C=CC(=O)Nc1cnc2c(c1)c(/C=C/c1ccccc1)cn2C` [Compound 45, (E)-N-(1-Methyl-3-styryl-1H-pyrrolo[2,3-b]pyridin-5-yl)acrylamide] fall in the same range of IC50: 100 to 1000 nM for the first, 100 to 1000 nM for the second.

First: C=CC(=O)Nc1ccc2c(c1)c(C1=CCC(C)(C)CC1)cn2C [Example 124, N-(3-(4,4-dimethylcyclohex-1-en-1-yl)-1-methyl-1H-indol-5-yl)acrylamide]
Second: C=CC(=O)Nc1cnc2c(c1)c(C1=CCCCC1)cn2C [Example 101, N-(3-(Cyclohex-1-en-1-yl)-1-methyl-1H-pyrrolo[2,3-b]pyridin-5-yl)acrylamide]
The IC50 of the first is lower: no more than 100 nM for the first, 1000 to 10000 nM for the second.

First: C=CC(=O)Nc1ccc2c(/C=C/c3ccc(Cl)cc3)cn(C)c2c1 [Compound 12, (E)-N-(3-(4-Chlorostyryl)-1-methyl-1H-indol-6-yl)acrylamide]
Second: C=CC(=O)Nc1cnc2c(c1)c(/C=C/c1ccc(Cl)cc1)cn2C(C)C [Compound 20, (E)-N-(3-(4-Chlorostyryl)-1-isopropyl-1H-pyrrolo[2,3-b]pyridin-5-yl)acrylamide]
The IC50 of the first is lower: 100 to 1000 nM for the first, 1000 to 10000 nM for the second.

`C=CC(=O)Nc1cnc2c(c1)c(-c1ccc(F)c(Cl)c1)cn2C(F)F` [Example 135, N-(3-(3-Chloro-4-fluorophenyl)-1-(difluoromethyl)-1H-pyrrolo[2,3-b]pyridin-5-yl)acrylamide] and `C=CC(=O)Nc1cnc2c(c1)c(-c1ccc(N3CCCCC3)cc1)cn2C` [Example 102, N-(1-Methyl-3-(4-(piperidin-1-yl)phenyl)-1H-pyrrolo[2,3-b]pyridin-5-yl)acrylamide] fall in the same range of IC50: 1000 to 10000 nM for the first, 1000 to 10000 nM for the second.

`C=CC(=O)Nc1cnc2c(c1)c(-c1cccc(CCC3CCC(F)(F)CC3)c1)cn2C` [Example 86, N-(3-(3-(2-(4,4-Difluorocyclohexyl)ethyl)phenyl)-1-methyl-1H-pyrrolo[2,3-b]pyridin-5-yl)acrylamide] and `C=CC(=O)Nc1cnc2c(c1)c(CC1CCCCC1)cn2C` [Example 138, N-(3-(Cyclohexylmethyl)-1-methyl-1H-pyrrolo[2,3-b]pyridin-5-yl)acrylamide] cannot be ordered by IC50: 100 to 1000 nM for the first, no more than 100 nM for the second.

`C=CS(=O)(=O)Nc1cnc2c(c1)c(/C=C/c1ccc(Cl)cc1)cn2C` [Example 116, (E)-N-(3-(4-Chlorostyryl)-1-methyl-1H-pyrrolo[2,3-b]pyridin-5-yl) ethenesulfonamide] and `C=CC(=O)Nc1cnc2c(c1)c(C=C1CCCCC1)cn2C` [Example 137, N-(3-(Cyclohexylidenemethyl)-1-methyl-1H-pyrrolo[2,3-b]pyridin-5-yl)acrylamide] cannot be ordered by IC50: 100 to 1000 nM for the first, no more than 100 nM for the second.

With `CN(C)C/C=C/C(=O)Nc1cnc2c(c1)c(-c1ccc(C(F)(F)F)cc1)cn2C` [Example 120, (E)-4-(Dimethylamino)-N-(1-methyl-3-(4-(trifluoromethyl)phenyl)-1H-pyrrolo[2,3-b]pyridin-5-yl) but-2-enamide 2,2,2-trifluoroacetate] the IC50 was 1000 to 10000 nM.
